In EPA's ToxRefDB 2:

Legend:
[1] = test system: mouse; settings: Multigenerational reproductive toxicity study, cd1, Oral, Water, dose end: 2 generation
[2] = test system: mouse; settings: Subchronic oral toxicity in rodents, b6c3f1, Feed, dose end: 13 week, group: systemic, systemic / pathology microscopic / liver / degeneration + systemic / pathology microscopic / liver / hyalinization
[3] = test system: rat; settings: Subchronic oral toxicity in rodents, fischer, Feed, dose end: 13 week, group: systemic
[4] = test system: rabbit; settings: Prenatal developmental toxicity study; new zealand white; Oral; Gavage/Intubation; dose end: 19 GD; group: maternal; reproductive / reproductive performance / pregnancy / pregnancy + reproductive / reproductive performance / premature delivery / premature …
[5] = test system: rat; settings: Prenatal developmental toxicity study, sprague dawley, Oral, Gavage/Intubation, dose end: 15 GD
[6] = test system: mouse; settings: Multigenerational reproductive toxicity study, cd1, Oral, Water, dose end: 2 generation; remark: listed apart in the source
[7] = test system: mouse; settings: Combined chronic toxicity/carcinogenicity, b6c3f1, Oral, Feed, dose end: 2 year, group: systemic
[8] = test system: rat; settings: Prenatal developmental toxicity study, sprague dawley, Oral, Gavage/Intubation, dose end: 20 GD
[9] = group: offspring, developmental / developmental malformation / bone / absent + developmental / developmental malformation / bone / fused + developmental / …
[10] = group: parental, systemic / in life observation / mortality / mortality
[11] = group: reproductive, reproductive / reproductive performance / fertility / fertility + reproductive / offspring survival early / litter size / litter size
[12] = systemic / clinical chemistry / creatinine / creatinine + systemic / clinical chemistry / urea nitrogen / urea nitrogen + systemic / in life…
[13] = systemic / clinical chemistry / urea nitrogen / urea nitrogen
[14] = group: developmental, developmental / developmental malformation / bone / absent + developmental / developmental malformation / bone / delayed ossification + …
[15] = group: maternal, systemic / in life observation / body weight / body weight + systemic / in life observation / body weight / body weight gain + reproductive…
[16] = group: offspring, developmental / developmental malformation / eye / absent + developmental / developmental malformation / mouth / jaw / cleft lip + …
[17] = group: offspring, systemic / in life observation / body weight / offspring (pup) weight
[18] = group: parental, systemic / in life observation / water consumption / water consumption + systemic / organ weight / liver / absolute + systemic / in life …
[19] = group: parental, systemic / pathology gross / sperm measure / sperm count
[20] = group: reproductive, reproductive / offspring survival early / live fetuses / live fetuses
[21] = group: reproductive, reproductive / reproductive performance / fertility / fertility + reproductive / offspring survival early / live fetuses / live fetuses
[22] = systemic / pathology microscopic / liver / degeneration
[23] = systemic / pathology microscopic / liver / degeneration + systemic / pathology microscopic / lung / hyperplasia + systemic / pathology …
[24] = group: developmental, developmental / developmental malformation / bone / absent + developmental / developmental malformation / bone / double-tipped + …
[25] = group: maternal, reproductive / reproductive performance / gestational length / gestational length + systemic / pathology microscopic / kidney / dilatation…

## OCCO [Ethylene glycol]
[1]; [9]
  LEL: 1330 mg/kg/day
  LOAEL: > 1330 mg/kg/day
  NEL: 667 mg/kg/day
  NOAEL: ≥ 1330 mg/kg/day
[1]; [10]
  LEL: 667 mg/kg/day
  LOAEL: > 1330 mg/kg/day
  NEL: 333 mg/kg/day
  NOAEL: ≥ 1330 mg/kg/day
[1]; group: reproductive, reproductive / reproductive performance / fertility / fertility
  NEL: 667 mg/kg/day
[1]; [11]
  LEL: 1330 mg/kg/day
  LOAEL: > 1330 mg/kg/day
  NOAEL: ≥ 1330 mg/kg/day
[2]
  LEL: 3750 mg/kg/day
  LOAEL: > 7500 mg/kg/day
  NEL: 1880 mg/kg/day
  NOAEL: ≥ 7500 mg/kg/day
[3]; [12]
  LOAEL: 1250 mg/kg/day
  NOAEL: 625 mg/kg/day
[3]; [13]
  LEL: 160 mg/kg/day
  NEL: < 160 mg/kg/day
[4]
  LEL: 2000 mg/kg/day
  LOAEL: > 2000 mg/kg/day
  NEL: 1000 mg/kg/day
  NOAEL: ≥ 2000 mg/kg/day
[5]; [14]
  LEL: 2500 mg/kg/day
  LOAEL: > 2500 mg/kg/day
  NEL: < 2500 mg/kg/day
  NOAEL: ≥ 2500 mg/kg/day
[5]; [15]
  LEL: 2500 mg/kg/day
  LOAEL: > 2500 mg/kg/day
  NEL: < 2500 mg/kg/day
  NOAEL: ≥ 2500 mg/kg/day
[6]; [16]
  LOAEL: > 2000 mg/kg/day
  NOAEL: ≥ 2000 mg/kg/day
[6]; [17]
  LEL: 667 mg/kg/day
  NEL: < 667 mg/kg/day
[6]; [18]
  LOAEL: > 2000 mg/kg/day
  NOAEL: ≥ 2000 mg/kg/day
[6]; [19]
  LEL: 667 mg/kg/day
  NEL: < 667 mg/kg/day
[6]; [20]
  LEL: 1330 mg/kg/day
  NEL: 667 mg/kg/day
[6]; [21]
  LOAEL: > 2000 mg/kg/day
  NOAEL: ≥ 2000 mg/kg/day
[7]; [22]
  LEL: 1500 mg/kg/day
  NEL: < 1500 mg/kg/day
[7]; [23]
  LOAEL: > 12000 mg/kg/day
  NOAEL: ≥ 12000 mg/kg/day
[8]; [24]
  LOAEL: > 2250 mg/kg/day
  NEL: 250 mg/kg/day
  NOAEL: ≥ 2250 mg/kg/day
[8]; group: developmental, developmental / developmental malformation / kidney / size + systemic / in life observation / body weight / fetal weight
  LEL: 1250 mg/kg/day
[8]; [25]
  LEL: 1250 mg/kg/day
  LOAEL: > 2250 mg/kg/day
  NEL: 250 mg/kg/day
  NOAEL: ≥ 2250 mg/kg/day
